The subject of assay [1] is primary, diploid fibroblasts isolated from human skin. The assay can be described thus: Growth inhibition of primary diploid human skin fibroblasts. The format is cell-based. To be noted: 50% inhibition of human skin fibroblast growth. As to the method: The in vitro growth inhibitory effects of certain of the chemoprotective polyamines of the invention were measured using primary, diploid fibroblasts isolated from human skin.

Assay [2] relates to Cytoxan-induced alopecia in rat pups. The assay can be described thus: Cytoxan-induced alopecia in rat pups. The format is in vivo. As to the method:
Induction of alopecia by cytoxan (CTX). Lactating Sprague Dawley mother rats with rat pups were purchased from Harlan Sprague Dawley (Indianapolis, Ind.). The mother rats were given food and water ad libitum. The rats pups were tested in the model of chemotherapy-induced alopecia described by Hussein A. M. et al., Science: 249, 1564 (1990). Cytoxan (CTX), a chemotherapeutic widely used in the treatment of cancer, was used to induce alopecia in the rats. A common side effect of cytoxan treatment in patients is alopecia. Lyophilized vials of Cytoxan were obtained from Mead-Johnson. To produce CTX-induced alopecia, 11 day old rat pups, which are at the peak of coat growth, were injected i.p. with 30-35 μg of CTX/gm body weight. CTX was dissolved in water. By day 18 of life, the animals have shed virtually 100% of their coat leaving bare skin on their backs. Thus, topical application of protective drugs to the animal's back prior to the CTX insult provides a suitable test for prevention of chemotherapy-induced alopecia. A separate alopecia assay was also developed in which whole-body irradiation on day 11 of life was used as the insult. This assay is described in further detail in Example 12 which follows.
In the earliest studies with chemoprotective polyamines, the molecules were prepared in a topical delivery vehicle consisting of from 50-70% ethanol in water, depending on the solubility of the compound. The compounds in ethanol/water solution from 50-150 µl in volume were topically administered to the backs of the pups once per day before and after CTX challenge. Using a micropipette, the formulation was applied to an approximately 2 cm2 section of skin on the backs of the rat pups. Specifically, the pups were treated once daily for the 4-5 days before CTX challenge, once on the day of CTX challenge and once daily for 5 days afterwards. Control groups consisted of pups receiving only delivery vehicle. […]
In the earliest studies with chemoprotective polyamines, hair loss was evaluated using a modified alopecia-scoring index described by Chen G. et al., Int. […] In the later studies with aminothiols a simpler scoring scale was adopted in which coat density was scored on a 0-100 scale as “% of normal coat density.”
Method: To assess the ability of topical treatments to prevent Cytoxan-induced alopecia we used a published protocol (Hussein et al., Science. 249(4976):1564-6, 1990) in which 11 day old neonate rat pups (Sprague-Dawley) receive a total of 6 topical skin treatments of active agent(s) during the 5 hr before and 2 hr after a single ip dose of Cytoxan (32 ug/gm b.w.). […] The density of the rat coats in the topical treatment area was scored on day 18 of life for animals injected with Cytoxan.

Assay [3] addresses DNA. The assay can be described thus: DNA binding/precipitation from solution. The following applies: Expt. 1; read-out: DNA Bind/ppt. IC50 (uM), Expt. 1. An excerpt: The chemoprotective polyamines provided herein are also able to bind, denature and precipitate DNA from solution. As the skilled artisan will appreciate, as the concentration of polyamine is increased, there is a point where polyamine binding to helical B-DNA induces single-stranded ‘bubbles’ and conversion to other forms of DNA structure, such as Z-DNA (Feuerstein, B. et al., Nuc. Acids Res. 17:6883-6892, 1989; Basu, H. and Marton, L., Biochem. J. 244:243-246, 1987), as well as precipitating the DNA from solution.

The subject of assay [4] is 23SK skin cells. In words: Flow cytometry cell cycle distribution. The format is cell-based, human. To be noted: IC80 dose. An excerpt: FIGS. 5A-5D are cell histograms showing the results from flow cytometry analysis of chemoprotective polyamine-treated 23SK skin cells.
In FIG. 5, cell histograms showing the results from flow cytometry analysis of chemoprotective polyamine-treated 23SK skin cells are shown. […] The transient nature of the cell cycle block induced by chemoprotective polyamines is believed to be an important aspect of their efficacy, i.e., their ability to block cell cycle progression in stem cells during the course of chemo- or radiotherapy, and the resumption of normal stem cell division after a given cancer therapy course has been completed.

For assay [5], the system named is p21 protein in 23SK human skin cells. The assay can be described thus: p21 induction by western analysis. The format is cell-based. To be noted: 23SK cells, 30 hr exposure. As to the method: FIGS. 3A and 3B illustrate the level of induced p21 protein seen in diploid human fibroblasts after a 30 hr exposure to each of the indicated chemoprotective polyamines. […] In these experiments, the 23SK human skin cells were exposed for 30 hr to an “IC80” dose of each of the indicated chemoprotective polyamines and then lysed. Cell extracts were then prepared in order to measure p21 levels by western analysis (FIG. 3A).
FIG. 3 illustrates that chemoprotective polyamines are able to induce expression of the negative cell cycle regulatory protein, p21, after exposing the human skin cells to the polyamine molecules. […] In these experiments, the 23SK human skin cells were exposed for 30 hr to an “IC80” dose of each of the indicated chemoprotective polyamines and then lysed. Cell extracts were then prepared in order to measure p21 levels by western analysis (FIG. 3A). Although the ability of modified polyamines to induce p21 is known in the literature (Kramer, D. et al., Cancer Res. 59:1278-1286, 1999), it is a novel aspect of this invention that those chemoprotective polyamines with longer aliphatic “arms” were better able to induce expression of p21 as shown in FIG. 4.

Experimental findings from patent US7314959B2, “Amino thiol compounds and compositions for use in conjunction with cancer therapy” (Wisconsin Alumni Research Foundation, priority 2003, dated 2008) are described below.

Read-outs that look alike come from different tables or passages of the source.

As to `CCNCCCCNCC=C(CNCC)CNCCCCNCC` [PrC-110], the IC50 is 1680 µM in assay [1] (Expt. 1, read-out: IC50 (uM), Expt. 1); 809 µM in assay [1] (Expt. 2, read-out: IC50 (uM), Expt. 2); 270 µM in assay [3]. The “protection against Cytoxan-induced alopecia” value in assay [2] (topical, alcohol:water vehicle, once per day five days before and five days after single systemic Cytoxan dose) is given as “excellent efficacy”. For the same compound, the “Cell Cycle Distribution At IC80 Dose (%) G1” value in assay [4] (G1) amounted to 60%. Also, the “Cell Cycle Distribution At IC80 Dose (%) G2/M” value in assay [4] (G2/M) is reported as 14%. Also, the “Cell Cycle Distribution At IC80 Dose (%) S” value in assay [4] (S) is reported as 26%. Further, the “p21 fold-induction at IC80 Dose” value in assay [5] was 2.91 fold.

Regarding `Oc1ccc(/C=C/c2cc(O)cc(O)c2)cc1` [Resveratrol, trihydroxy-trans-stilbene, reference compound], the “Alopecia Score (% Normal Coat Density in Topical Treatment Area)” value in assay [2] (Resveratrol 5 umol/day alone, ip Cytoxan 32 ug/gm b.w., Experiment 564-567) worked out at 5%.
